According to the NIST ThermoML archive (doi:10.1016/j.fluid.2009.08.011):
Numbers after ± are expanded uncertainties.

Test: cn = amount concentration of the nth substance listed, in mol/dm3
Conditions: 101 kPa, Liquid, Alternating current cell with electrodes

SMILES: CCCCn1cc[n+](C)c1.[Cl-] [1-butyl-3-methylimidazolium chloride] + O
- molar conductivity (298.15 K, c1 = 0.0004271): 0.0109 ± 0.0011 S·m2/mol
- molar conductivity (298.15 K, c1 = 0.0009378): 0.0108 ± 0.0011 S·m2/mol
- molar conductivity (298.15 K, c1 = 0.001755): 0.0107 ± 0.0011 S·m2/mol
- molar conductivity (298.15 K, c1 = 0.002553): 0.0106 ± 0.0011 S·m2/mol
- molar conductivity (298.15 K, c1 = 0.002999): 0.0106 ± 0.0011 S·m2/mol
- molar conductivity (298.15 K, c1 = 0.003835): 0.0105 ± 0.0011 S·m2/mol
- molar conductivity (298.15 K, c1 = 0.004438): 0.0104 ± 0.001 S·m2/mol
- molar conductivity (298.15 K, c1 = 0.004986): 0.0104 ± 0.001 S·m2/mol
- molar conductivity (298.15 K, c1 = 0.005608): 0.0103 ± 0.001 S·m2/mol
- molar conductivity (298.15 K, c1 = 0.006388): 0.0103 ± 0.001 S·m2/mol
- molar conductivity (298.15 K, c1 = 0.007112): 0.0102 ± 0.001 S·m2/mol
- molar conductivity (298.15 K, c1 = 0.008217): 0.0101 ± 0.001 S·m2/mol
- molar conductivity (298.15 K, c1 = 0.008932): 0.0101 ± 0.001 S·m2/mol
- molar conductivity (298.15 K, c1 = 0.009777): 0.00999 ± 0.001 S·m2/mol
- molar conductivity (298.15 K, c1 = 0.01041): 0.00996 ± 0.001 S·m2/mol
- molar conductivity (298.15 K, c1 = 0.01119): 0.00983 ± 0.00098 S·m2/mol
- molar conductivity (298.15 K, c1 = 0.01216): 0.00978 ± 0.00098 S·m2/mol
- molar conductivity (298.15 K, c1 = 0.01304): 0.00968 ± 0.00097 S·m2/mol
- molar conductivity (298.15 K, c1 = 0.01389): 0.00962 ± 0.00096 S·m2/mol
- molar conductivity (308.15 K, c1 = 0.0006735): 0.0111 ± 0.0011 S·m2/mol
- molar conductivity (308.15 K, c1 = 0.001508): 0.011 ± 0.0011 S·m2/mol
- molar conductivity (308.15 K, c1 = 0.002241): 0.011 ± 0.0011 S·m2/mol
- molar conductivity (308.15 K, c1 = 0.002432): 0.0109 ± 0.0011 S·m2/mol
- molar conductivity (308.15 K, c1 = 0.003588): 0.0108 ± 0.0011 S·m2/mol
- molar conductivity (308.15 K, c1 = 0.004875): 0.0106 ± 0.0011 S·m2/mol
- molar conductivity (308.15 K, c1 = 0.006007): 0.0104 ± 0.001 S·m2/mol
- molar conductivity (308.15 K, c1 = 0.008219): 0.0103 ± 0.001 S·m2/mol
- molar conductivity (308.15 K, c1 = 0.01013): 0.0103 ± 0.001 S·m2/mol
- molar conductivity (308.15 K, c1 = 0.01259): 0.0102 ± 0.001 S·m2/mol
- molar conductivity (308.15 K, c1 = 0.01457): 0.0101 ± 0.001 S·m2/mol
- molar conductivity (308.15 K, c1 = 0.01708): 0.01 ± 0.001 S·m2/mol
- molar conductivity (308.15 K, c1 = 0.01958): 0.01 ± 0.001 S·m2/mol
- molar conductivity (308.15 K, c1 = 0.02199): 0.00998 ± 0.001 S·m2/mol
- molar conductivity (318.15 K, c1 = 0.000681): 0.0119 ± 0.0012 S·m2/mol
- molar conductivity (318.15 K, c1 = 0.001635): 0.0117 ± 0.0012 S·m2/mol
- molar conductivity (318.15 K, c1 = 0.002388): 0.0113 ± 0.0011 S·m2/mol
- molar conductivity (318.15 K, c1 = 0.003429): 0.0111 ± 0.0011 S·m2/mol
- molar conductivity (318.15 K, c1 = 0.004391): 0.0109 ± 0.0011 S·m2/mol
- molar conductivity (318.15 K, c1 = 0.006618): 0.0107 ± 0.0011 S·m2/mol
- molar conductivity (318.15 K, c1 = 0.008725): 0.0105 ± 0.001 S·m2/mol
- molar conductivity (318.15 K, c1 = 0.01078): 0.0103 ± 0.001 S·m2/mol
- molar conductivity (318.15 K, c1 = 0.01367): 0.0101 ± 0.001 S·m2/mol
- molar conductivity (318.15 K, c1 = 0.01671): 0.00997 ± 0.001 S·m2/mol
- molar conductivity (318.15 K, c1 = 0.02016): 0.00981 ± 0.00098 S·m2/mol
- molar conductivity (318.15 K, c1 = 0.02295): 0.0097 ± 0.00097 S·m2/mol
- molar conductivity (318.15 K, c1 = 0.02493): 0.00962 ± 0.00096 S·m2/mol
- molar conductivity (328.15 K, c1 = 0.0006908): 0.0125 ± 0.0012 S·m2/mol
- molar conductivity (328.15 K, c1 = 0.0007995): 0.0124 ± 0.0012 S·m2/mol
- molar conductivity (328.15 K, c1 = 0.001327): 0.0123 ± 0.0012 S·m2/mol
- molar conductivity (328.15 K, c1 = 0.002041): 0.0121 ± 0.0012 S·m2/mol
- molar conductivity (328.15 K, c1 = 0.002693): 0.012 ± 0.0012 S·m2/mol
- molar conductivity (328.15 K, c1 = 0.004479): 0.0115 ± 0.0011 S·m2/mol
- molar conductivity (328.15 K, c1 = 0.006054): 0.0113 ± 0.0011 S·m2/mol
- molar conductivity (328.15 K, c1 = 0.007413): 0.0111 ± 0.0011 S·m2/mol
- molar conductivity (328.15 K, c1 = 0.008786): 0.0109 ± 0.0011 S·m2/mol
- molar conductivity (328.15 K, c1 = 0.01028): 0.0108 ± 0.0011 S·m2/mol
- molar conductivity (328.15 K, c1 = 0.01229): 0.0106 ± 0.0011 S·m2/mol
- molar conductivity (328.15 K, c1 = 0.01504): 0.0104 ± 0.001 S·m2/mol
- molar conductivity (328.15 K, c1 = 0.01749): 0.0102 ± 0.001 S·m2/mol

SMILES: CCCCn1cc[n+](C)c1.[I-] [1-butyl-3-methylimidazolium iodide] + O
- molar conductivity (298.15 K, c1 = 0.0009058): 0.0138 ± 0.0014 S·m2/mol
- molar conductivity (298.15 K, c1 = 0.001366): 0.0137 ± 0.0014 S·m2/mol
- molar conductivity (298.15 K, c1 = 0.002017): 0.0136 ± 0.0014 S·m2/mol
- molar conductivity (298.15 K, c1 = 0.002809): 0.0135 ± 0.0014 S·m2/mol
- molar conductivity (298.15 K, c1 = 0.003715): 0.0134 ± 0.0013 S·m2/mol
- molar conductivity (298.15 K, c1 = 0.00495): 0.0133 ± 0.0013 S·m2/mol
- molar conductivity (298.15 K, c1 = 0.006082): 0.0132 ± 0.0013 S·m2/mol
- molar conductivity (298.15 K, c1 = 0.007529): 0.0131 ± 0.0013 S·m2/mol
- molar conductivity (298.15 K, c1 = 0.009093): 0.0129 ± 0.0013 S·m2/mol
- molar conductivity (298.15 K, c1 = 0.01105): 0.0127 ± 0.0013 S·m2/mol
- molar conductivity (298.15 K, c1 = 0.01306): 0.0126 ± 0.0013 S·m2/mol
- molar conductivity (298.15 K, c1 = 0.01489): 0.0125 ± 0.0012 S·m2/mol
- molar conductivity (298.15 K, c1 = 0.01706): 0.0123 ± 0.0012 S·m2/mol
- molar conductivity (298.15 K, c1 = 0.01978): 0.0122 ± 0.0012 S·m2/mol
- molar conductivity (298.15 K, c1 = 0.02281): 0.012 ± 0.0012 S·m2/mol
- molar conductivity (308.15 K, c1 = 0.0004602): 0.0139 ± 0.0014 S·m2/mol
- molar conductivity (308.15 K, c1 = 0.0008351): 0.0138 ± 0.0014 S·m2/mol
- molar conductivity (308.15 K, c1 = 0.001278): 0.0137 ± 0.0014 S·m2/mol
- molar conductivity (308.15 K, c1 = 0.001726): 0.0135 ± 0.0014 S·m2/mol
- molar conductivity (308.15 K, c1 = 0.002088): 0.0135 ± 0.0013 S·m2/mol
- molar conductivity (308.15 K, c1 = 0.00254): 0.0133 ± 0.0013 S·m2/mol
- molar conductivity (308.15 K, c1 = 0.003341): 0.0132 ± 0.0013 S·m2/mol
- molar conductivity (308.15 K, c1 = 0.004184): 0.0131 ± 0.0013 S·m2/mol
- molar conductivity (308.15 K, c1 = 0.005066): 0.0129 ± 0.0013 S·m2/mol
- molar conductivity (308.15 K, c1 = 0.006502): 0.0127 ± 0.0013 S·m2/mol
- molar conductivity (308.15 K, c1 = 0.007827): 0.0126 ± 0.0013 S·m2/mol
- molar conductivity (308.15 K, c1 = 0.009685): 0.0124 ± 0.0012 S·m2/mol
- molar conductivity (308.15 K, c1 = 0.01153): 0.0122 ± 0.0012 S·m2/mol
- molar conductivity (318.15 K, c1 = 0.0002077): 0.0144 ± 0.0014 S·m2/mol
- molar conductivity (318.15 K, c1 = 0.0005721): 0.0143 ± 0.0014 S·m2/mol
- molar conductivity (318.15 K, c1 = 0.000962): 0.0142 ± 0.0014 S·m2/mol
- molar conductivity (318.15 K, c1 = 0.001339): 0.0141 ± 0.0014 S·m2/mol
- molar conductivity (318.15 K, c1 = 0.002111): 0.0139 ± 0.0014 S·m2/mol
- molar conductivity (318.15 K, c1 = 0.002755): 0.0138 ± 0.0014 S·m2/mol
- molar conductivity (318.15 K, c1 = 0.003581): 0.0136 ± 0.0014 S·m2/mol
- molar conductivity (318.15 K, c1 = 0.004395): 0.0134 ± 0.0013 S·m2/mol
- molar conductivity (318.15 K, c1 = 0.005399): 0.0132 ± 0.0013 S·m2/mol
- molar conductivity (318.15 K, c1 = 0.006692): 0.013 ± 0.0013 S·m2/mol
- molar conductivity (318.15 K, c1 = 0.007942): 0.0128 ± 0.0013 S·m2/mol
- molar conductivity (318.15 K, c1 = 0.009561): 0.0126 ± 0.0013 S·m2/mol
- molar conductivity (318.15 K, c1 = 0.01162): 0.0124 ± 0.0012 S·m2/mol
- molar conductivity (328.15 K, c1 = 0.0004059): 0.0146 ± 0.0015 S·m2/mol
- molar conductivity (328.15 K, c1 = 0.00074): 0.0145 ± 0.0014 S·m2/mol
- molar conductivity (328.15 K, c1 = 0.001116): 0.0143 ± 0.0014 S·m2/mol
- molar conductivity (328.15 K, c1 = 0.001865): 0.0141 ± 0.0014 S·m2/mol
- molar conductivity (328.15 K, c1 = 0.002626): 0.0139 ± 0.0014 S·m2/mol
- molar conductivity (328.15 K, c1 = 0.003374): 0.0138 ± 0.0014 S·m2/mol
- molar conductivity (328.15 K, c1 = 0.004072): 0.0137 ± 0.0014 S·m2/mol
- molar conductivity (328.15 K, c1 = 0.005214): 0.0134 ± 0.0013 S·m2/mol
- molar conductivity (328.15 K, c1 = 0.006444): 0.0132 ± 0.0013 S·m2/mol
- molar conductivity (328.15 K, c1 = 0.007599): 0.013 ± 0.0013 S·m2/mol
- molar conductivity (328.15 K, c1 = 0.009252): 0.0128 ± 0.0013 S·m2/mol
- molar conductivity (328.15 K, c1 = 0.01045): 0.0126 ± 0.0013 S·m2/mol
- molar conductivity (328.15 K, c1 = 0.01188): 0.0125 ± 0.0012 S·m2/mol
